This is an account of results in patent publication US20250270191A1, “QUINOLONE BCL6 BIFUNCTIONAL DEGRADERS” (Treeline Biosciences, Inc., priority 2022, published 2025).

This test deals with T1, Human BCL6 protein (N-terminal HiBiT tagged BCL6 in HT1080 cells) (Homo sapiens, UniProt P41182+Q96SW2).
T1 construct: Human BCL6 protein coding open reading frame; expressed in transfected cells; host or cells: HT1080 (ATCC CCL-121), stably transduced with lentivirus pLV-UBC-N-HiBiT-BCL6-PGK-puro
The test can be described thus: HiBiT based BCL6 degradation assay. The class given is cell-based. The following applies: HT1080 cells expressing N-terminal HiBiT tagged BCL6; 5 hours incubation; BCL6 degradation normalized with DMSO control. A digest of the protocol:
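HT1080 cells stably expressing N-terminal HiBiT-BCL6 were treated with compound dilution series for 5 h at 37° C. in RPMI 1640 with 10% FBS. HiBiT lytic luminescence read after 15 min; degradation normalized to DMSO, with curves fitted by four-parameter logistic model.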

For the compound `CNC(=O)COc1cc2cc(Nc3nc(N4CCC[C@@H](COc5ccc6c(C7CCC(=O)NC7=O)nn(C)c6c5)C4)ncc3Cl)ccc2n(C)c1=O` (stereo partly drawn) [Compound 302b, 2-((6-((5-chloro-2-((3R)-3-(((3-(2,6-dioxopiperidin-3-yl)-1-methyl-1H-indazol-6-yl)oxy)methyl)piperidin-1-yl)pyrimidin-4-yl)amino)-1-methyl-2-oxo-1,2-dihydroquinolin-3-yl)oxy)-N-methylacetamide], the “Ymin (5 hr)” value is given as “++ (50% < Ymin ≤ 70%)”.

With `CNC(=O)COc1cc2cc(Nc3nc(NC[C@@H]4CCCN(c5cccc6c(C7CCC(=O)NC7=O)nn(C)c56)C4)ncc3Cl)ccc2n(C)c1=O` (stereo partly drawn) [Compound 303a, 2-((6-((5-chloro-2-((((3S)-1-(3-(2,6-dioxopiperidin-3-yl)-1-methyl-1H-indazol-7-yl)piperidin-3-yl)methyl)amino)pyrimidin-4-yl)amino)-1-methyl-2-oxo-1,2-dihydroquinolin-3-yl)oxy)-N-methylacetamide], the “Ymin (5 hr)” value is “++ (50% < Ymin ≤ 70%)”.

As to `CNC(=O)COc1cc2cc(Nc3nc(NC[C@H]4CCCN(c5cccc6c(C7CCC(=O)NC7=O)nn(C)c56)C4)ncc3Cl)ccc2n(C)c1=O` (stereo partly drawn) [Compound 303b, 2-((6-((5-chloro-2-((((3R)-1-(3-(2,6-dioxopiperidin-3-yl)-1-methyl-1H-indazol-7-yl)piperidin-3-yl)methyl)amino)pyrimidin-4-yl)amino)-1-methyl-2-oxo-1,2-dihydroquinolin-3-yl)oxy)-N-methylacetamide], the “Ymin (5 hr)” value is “++ (50% < Ymin ≤ 70%)”.

For `CNC(=O)COc1cc2cc(Nc3nc(NC[C@H]4CC[C@@H](Nc5cccc6c(C7CCC(=O)NC7=O)nn(C)c56)CC4)ncc3Cl)ccc2n(C)c1=O` (stereo partly drawn) [Compound 304a, 2-((6-((5-chloro-2-((((1s,4s)-4-((3-(2,6-dioxopiperidin-3-yl)-1-methyl-1H-indazol-7-yl)amino)cyclohexyl)methyl)amino)pyrimidin-4-yl)amino)-1-methyl-2-oxo-1,2-dihydroquinolin-3-yl)oxy)-N-methylacetamide], the “Ymin (5 hr)” value is “++ (50% < Ymin ≤ 70%)”.

Regarding `CNC(=O)COc1cc2cc(Nc3nc(NC[C@H]4CC[C@H](Nc5cccc6c(C7CCC(=O)NC7=O)nn(C)c56)CC4)ncc3Cl)ccc2n(C)c1=O` (stereo partly drawn) [Compound 304b, 2-((6-((5-chloro-2-((((1r,4r)-4-((3-(2,6-dioxopiperidin-3-yl)-1-methyl-1H-indazol-7-yl)amino)cyclohexyl)methyl)amino)pyrimidin-4-yl)amino)-1-methyl-2-oxo-1,2-dihydroquinolin-3-yl)oxy)-N-methylacetamide], the “Ymin (5 hr)” value is “++ (50% < Ymin ≤ 70%)”.

Consider `CNC(=O)COc1cc2cc(Nc3nc(N4CCN(C[C@H]5CCN(c6cccc7c(C8CCC(=O)NC8=O)nn(C)c67)C5)CC4)ncc3Cl)ccc2n(C)c1=O` (stereo partly drawn) [Compound 305a, 2-((6-((5-chloro-2-(4-(((3R)-1-(3-(2,6-dioxopiperidin-3-yl)-1-methyl-1H-indazol-7-yl)pyrrolidin-3-yl)methyl)piperazin-1-yl)pyrimidin-4-yl)amino)-1-methyl-2-oxo-1,2-dihydroquinolin-3-yl)oxy)-N-methylacetamide], for which the “Ymin (5 hr)” value was “+++ (25% < Ymin ≤ 50%)”.

As to `CNC(=O)COc1cc2cc(Nc3nc(N4CCN(C[C@@H]5CCN(c6cccc7c(C8CCC(=O)NC8=O)nn(C)c67)C5)CC4)ncc3Cl)ccc2n(C)c1=O` (stereo partly drawn) [Compound 305b, 2-((6-((5-chloro-2-(4-(((3S)-1-(3-(2,6-dioxopiperidin-3-yl)-1-methyl-1H-indazol-7-yl)pyrrolidin-3-yl)methyl)piperazin-1-yl)pyrimidin-4-yl)amino)-1-methyl-2-oxo-1,2-dihydroquinolin-3-yl)oxy)-N-methylacetamide], the “Ymin (5 hr)” value was “+++ (25% < Ymin ≤ 50%)”.

As for `CNC(=O)COc1cc2cc(Nc3nc(N4CCN(C[C@H]5CCN(c6ccc7c(C8CCC(=O)NC8=O)nn(C)c7c6)C5)CC4)ncc3Cl)ccc2n(C)c1=O` (stereo partly drawn) [Compound 306a, 2-((6-((5-chloro-2-(4-(((3R)-1-(3-(2,6-dioxopiperidin-3-yl)-1-methyl-1H-indazol-6-yl)pyrrolidin-3-yl)methyl)piperazin-1-yl)pyrimidin-4-yl)amino)-1-methyl-2-oxo-1,2-dihydroquinolin-3-yl)oxy)-N-methylacetamide], the “Ymin (5 hr)” value is on record as “+++ (25% < Ymin ≤ 50%)”.

Turning to `CNC(=O)COc1cc2cc(Nc3nc(N4CCN(C[C@@H]5CCN(c6ccc7c(C8CCC(=O)NC8=O)nn(C)c7c6)C5)CC4)ncc3Cl)ccc2n(C)c1=O` (stereo partly drawn) [Compound 306b, 2-((6-((5-chloro-2-(4-(((3S)-1-(3-(2,6-dioxopiperidin-3-yl)-1-methyl-1H-indazol-6-yl)pyrrolidin-3-yl)methyl)piperazin-1-yl)pyrimidin-4-yl)amino)-1-methyl-2-oxo-1,2-dihydroquinolin-3-yl)oxy)-N-methylacetamide], the “Ymin (5 hr)” value was “++++ (Ymin ≤ 25%)”.

As to `CNC(=O)COc1cc2cc(Nc3nc(N4CCN(CC5CCN(c6cccc7c(C8CCC(=O)NC8=O)nn(C)c67)CC5)[C@H](C)C4)ncc3Cl)ccc2n(C)c1=O` (stereo partly drawn) [Compound 308a, 2-((6-((5-chloro-2-((3R)-4-((1-(3-(2,6-dioxopiperidin-3-yl)-1-methyl-1H-indazol-7-yl)piperidin-4-yl)methyl)-3-methylpiperazin-1-yl)pyrimidin-4-yl)amino)-1-methyl-2-oxo-1,2-dihydroquinolin-3-yl)oxy)-N-methylacetamide], the “Ymin (5 hr)” value was “++++ (Ymin ≤ 25%)”.

With `CNC(=O)COc1cc2cc(Nc3nc(N4CCN(CC5CCN(c6cccc7c(C8CCC(=O)NC8=O)nn(C)c67)CC5)[C@@H](C)C4)ncc3Cl)ccc2n(C)c1=O` (stereo partly drawn) [Compound 308b, 2-((6-((5-chloro-2-((3S)-4-((1-(3-(2,6-dioxopiperidin-3-yl)-1-methyl-1H-indazol-7-yl)piperidin-4-yl)methyl)-3-methylpiperazin-1-yl)pyrimidin-4-yl)amino)-1-methyl-2-oxo-1,2-dihydroquinolin-3-yl)oxy)-N-methylacetamide], the “Ymin (5 hr)” value is recorded as “++++ (Ymin ≤ 25%)”.

For `CNC(=O)COc1cc2cc(Nc3nc(N4CCN(CC5CCN(c6ccc7c(C8CCC(=O)NC8=O)nn(C)c7c6)CC5)[C@H](C)C4)ncc3Cl)ccc2n(C)c1=O` (stereo partly drawn) [Compound 309a, 2-((6-((5-chloro-2-((3R)-4-((1-(3-(2,6-dioxopiperidin-3-yl)-1-methyl-1H-indazol-6-yl)piperidin-4-yl)methyl)-3-methylpiperazin-1-yl)pyrimidin-4-yl)amino)-1-methyl-2-oxo-1,2-dihydroquinolin-3-yl)oxy)-N-methylacetamide], the “Ymin (5 hr)” value was “+++ (25% < Ymin ≤ 50%)”.

On to `CNC(=O)COc1cc2cc(Nc3nc(N4CCN(CC5CCN(c6ccc7c(C8CCC(=O)NC8=O)nn(C)c7c6)CC5)[C@@H](C)C4)ncc3Cl)ccc2n(C)c1=O` (stereo partly drawn) [Compound 309b, 2-((6-((5-chloro-2-((3S)-4-((1-(3-(2,6-dioxopiperidin-3-yl)-1-methyl-1H-indazol-6-yl)piperidin-4-yl)methyl)-3-methylpiperazin-1-yl)pyrimidin-4-yl)amino)-1-methyl-2-oxo-1,2-dihydroquinolin-3-yl)oxy)-N-methylacetamide], for which the “Ymin (5 hr)” value is “+++ (25% < Ymin ≤ 50%)”.

For `CNC(=O)COc1cc2cc(Nc3nc(N4CCC(CC5CN(c6cccc7c(C8CCC(=O)NC8=O)nn(C)c67)C5)CC4)ncc3Cl)ccc2n(C)c1=O` (stereo not drawn) [Compound 310, 2-((6-((5-chloro-2-(4-((1-(3-(2,6-dioxopiperidin-3-yl)-1-methyl-1H-indazol-7-yl)azetidin-3-yl)methyl)piperidin-1-yl)pyrimidin-4-yl)amino)-1-methyl-2-oxo-1,2-dihydroquinolin-3-yl)oxy)-N-methylacetamide], the “Ymin (5 hr)” value is recorded as “+++ (25% < Ymin ≤ 50%)”.

Turning to `CNC(=O)COc1cc2cc(Nc3nc(N4CCN(CC5CCC6(CC5)CN(c5cccc7c(C8CCC(=O)NC8=O)nn(C)c57)C6)CC4)ncc3Cl)ccc2n(C(C)C)c1=O` (stereo not drawn) [Compound 311, 2-((6-((5-chloro-2-(4-((2-(3-(2,6-dioxopiperidin-3-yl)-1-methyl-1H-indazol-7-yl)-2-azaspiro[3.5]nonan-7-yl)methyl)piperazin-1-yl)pyrimidin-4-yl)amino)-1-isopropyl-2-oxo-1,2-dihydroquinolin-3-yl)oxy)-N-methylacetamide], the “Ymin (5 hr)” value is given as “++ (50% < Ymin ≤ 70%)”.

For `CNC(=O)COc1cc2cc(Nc3nc(N4CCC[C@H](CN(C)c5ccc6c(C7CCC(=O)NC7=O)nn(C)c6c5)C4)ncc3Cl)ccc2n(C)c1=O` (stereo partly drawn) [Compound 312a, 2-((6-((5-chloro-2-((3R)-3-(((3-(2,6-dioxopiperidin-3-yl)-1-methyl-1H-indazol-6-yl)(methyl)amino)methyl)piperidin-1-yl)pyrimidin-4-yl)amino)-1-methyl-2-oxo-1,2-dihydroquinolin-3-yl)oxy)-N-methylacetamide], the “Ymin (5 hr)” value is recorded as “++ (50% < Ymin ≤ 70%)”.

As for `CNC(=O)COc1cc2cc(Nc3nc(N4CC[C@H](COc5ccc6c(C7CCC(=O)NC7=O)nn(C)c6c5)C4)ncc3Cl)ccc2n(C)c1=O` (stereo partly drawn) [Compound 313a, 2-((6-((5-chloro-2-((3S)-3-(((3-(2,6-dioxopiperidin-3-yl)-1-methyl-1H-indazol-6-yl)oxy)methyl)pyrrolidin-1-yl)pyrimidin-4-yl)amino)-1-methyl-2-oxo-1,2-dihydroquinolin-3-yl)oxy)-N-methylacetamide], the “Ymin (5 hr)” value is “++ (50% < Ymin ≤ 70%)”.

As for `CNC(=O)COc1cc2cc(Nc3nc(N4CCC(CN5CCN(C(=O)c6cccc(C7CCC(=O)NC7=O)c6)CC5)CC4)ncc3Cl)ccc2n(C)c1=O` (stereo not drawn) [Compound 314, 2-((6-((5-chloro-2-(4-((4-(3-(2,6-dioxopiperidin-3-yl)benzoyl)piperazin-1-yl)methyl)piperidin-1-yl)pyrimidin-4-yl)amino)-1-methyl-2-oxo-1,2-dihydroquinolin-3-yl)oxy)-N-methylacetamide], the “Ymin (5 hr)” value was “++ (50% < Ymin ≤ 70%)”.
